# Data taken from patent publication US8889704B2 (Array BioPharma Inc., priority 2011, dated 2014).
# Where a name gives a salt, the structure may show the parent alone.
# Columns and labels:
# Assay type in all cases: biochemical
# PIM-1 = PIM-1 (Homo sapiens, UniProt P11309); test: Enzyme PIM-1 Assay ([33P]ATP incorporation into PIM2tide, filter plate); conditions: averaged IC50; 35 μM ATP, 7.5 μM PIM2tide, 0.25 nM PIM-1, 60 min at 22° C.
# Method in brief: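 Ten-point, 3-fold dilution series (10 μM top, 2% DMSO final) tested for inhibition of 33P transfer from 35 μM ATP to 7.5 μM PIM2tide by 0.25 nM PIM-1. Reaction 60 min, 22 °C, pH 7.4 MOPS/MgCl2 buffer; phosphocellulose capture, scintillation counting, IC50 where fitted POC equals 50.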
# recombinant rat PIM-3 = recombinant rat PIM-3 (Rattus norvegicus, UniProt O70444); test: PIM-3 Assay (as Example A); conditions: averaged IC50; 30 μM ATP, 3.75 μM PIM2tide, 0.5 nM PIM-3
# Method in brief: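 33P incorporation from 30 μM [γ-33P]ATP into 3.75 μM PIM2tide by 0.5 nM rat PIM-3, 60 min at 22 °C in pH 7.4 MOPS buffer, read by P81 filter capture and scintillation counting. Compounds tested in 3-fold dilutions up to 10 μM final, 2% DMSO; percent-of-control data fitted by 4-parameter logistic for IC50.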
# [1] = molecular target: T1, GST-tagged recombinant full-length human Pim-2 (Homo sapiens, UniProt Q9P1W9); test: PIM-2 Assay (as Example A); conditions: averaged IC50; 4 μM ATP, 1.0 μM PIM2tide, 1.5 nM Pim-2
# T1 construct: GST-tagged recombinant full-length human Pim-2; GST
# Method in brief: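 IC50 was derived by 4-parameter logistic fitting of percent-of-control data over a 10-point, 3-fold series (highest 10 μM, 2% DMSO). Reactions held 1.5 nM GST-Pim-2 (full-length, human), 4 μM [γ-33P]ATP and 1.0 μM PIM2tide for 60 min at 22 °C, pH 7.4; 33P-peptide captured on P81 filters.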
# T1 sequence (Q9P1W9 whole entry): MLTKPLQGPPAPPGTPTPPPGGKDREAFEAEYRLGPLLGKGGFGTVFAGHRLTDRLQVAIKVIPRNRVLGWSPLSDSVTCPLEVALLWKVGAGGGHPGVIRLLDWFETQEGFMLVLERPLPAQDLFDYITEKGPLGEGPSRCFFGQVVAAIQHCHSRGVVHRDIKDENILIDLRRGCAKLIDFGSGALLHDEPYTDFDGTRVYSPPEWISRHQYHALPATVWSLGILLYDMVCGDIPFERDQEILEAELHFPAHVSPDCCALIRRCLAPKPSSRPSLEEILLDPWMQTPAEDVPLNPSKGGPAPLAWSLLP
# PIM-1, sequence (P11309 whole entry, species assumed): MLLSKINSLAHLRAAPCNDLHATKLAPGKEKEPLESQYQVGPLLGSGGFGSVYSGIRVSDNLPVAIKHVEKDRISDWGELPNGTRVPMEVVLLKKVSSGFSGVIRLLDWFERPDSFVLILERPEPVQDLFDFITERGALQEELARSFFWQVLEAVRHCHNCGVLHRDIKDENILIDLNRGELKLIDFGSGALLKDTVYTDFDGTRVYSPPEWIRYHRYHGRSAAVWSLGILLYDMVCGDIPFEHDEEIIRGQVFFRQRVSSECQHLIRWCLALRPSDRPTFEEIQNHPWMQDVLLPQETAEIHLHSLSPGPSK
SMILES,IC50 (PIM-1) [nM],IC50 (recombinant rat PIM-3) [nM],IC50 [1] [nM]
"CCSc1cccc2ccc(-c3nnc4ccc([C@@H](N5CC[C@H](N)C5)C(F)(F)F)cn34)nc12 [Example 273, (S)-1-((R)-1-(3-(8-(ethylthio)quinolin-2-yl)-[1,2,4]triazolo[4,3-a]pyridin-6-yl)-2,2,2-trifluoroethyl)pyrrolidin-3-amine hydrochloride]",25.9,43,> 1000
"N[C@H]1CCN([C@H](c2ccc3nnc(-c4ccc5ccc(CCO)cc5n4)n3c2)C(F)(F)F)C1 [Example 265, 2-(2-(6-((R)-1-((S)-3-aminopyrrolidin-1-yl)-2,2,2-trifluoroethyl)-[1,2,4]triazolo[4,3-a]pyridin-3-yl)quinolin-7-yl)ethanol dihydrochloride]",0.53,1.3,> 1000
"CCSc1ccc2ccc(-c3nnc4ccc([C@@H](N5CC[C@H](N)C5)C(F)(F)F)cn34)nc2c1 [Example 266, (S)-1-((R)-1-(3-(7-(ethylthio)quinolin-2-yl)-[1,2,4]triazolo[4,3-a]pyridin-6-yl)-2,2,2-trifluoroethyl)pyrrolidin-3-amine hydrochloride]",0.5,1,690
"N#Cc1cccc2ccc(-c3nnc4ccc([C@@H](N5CC[C@H](N)C5)C(F)(F)F)cn34)nc12 [Example 88, 2-(6-((R)-1-((S)-3-aminopyrrolidin-1-yl)-2,2,2-trifluoroethyl)-[1,2,4]triazolo[4,3-a]pyridin-3-yl)quinoline-8-carbonitrile dihydrochloride]",3.26,18,> 100
"CCNC(=O)Cc1cccc2ccc(-c3nnc4ccc([C@@H](N5CC[C@H](N)C5)C(F)(F)F)cn34)nc12 [Example 235, 2-(2-(6-((R)-1-((S)-3-aminopyrrolidin-1-yl)-2,2,2-trifluoroethyl)-[1,2,4]triazolo[4,3-a]pyridin-3-yl)quinolin-8-yl)-N-ethylacetamide dihydrochloride]",7.81,33,> 1000
"COc1cccc2ccc(-c3nnc4ccc([C@@H](N5CCC(C)(O)C5)C(F)(F)F)cn34)nc12 (single isomer, unassigned; diastereomer 2) [Example 194, hydrochloride]",> 100,> 100,> 1000
"CCOc1cc2nc(-c3nnc4ccc([C@H](N5CC[C@](C)(N)C5)C(F)(F)F)cn34)ccc2cc1F [Example 220, (S)-1-((S)-1-(3-(7-ethoxy-6-fluoroquinolin-2-yl)-[1,2,4]triazolo[4,3-a]pyridin-6-yl)-2,2,2-trifluoroethyl)-3-methylpyrrolidin-3-amine]",0.28,0.4,72
"Cc1cc(F)cc2ccc(-c3nnc4ccc([C@@H](N5CC[C@H](N)C5)C(F)(F)F)cn34)nc12 [Example 184, (S)-1-((R)-2,2,2-trifluoro-1-(3-(6-fluoro-8-methylquinolin-2-yl)-[1,2,4]triazolo[4,3-a]pyridin-6-yl)ethyl)pyrrolidin-3-amine dihydrochloride]",0.41,1.5,> 100
"CCOc1ccc2ccc(-c3nnc4ccc([C@H](N5CCC6(CCCN6)C5)C(F)(F)F)cn34)nc2c1 (stereo partly drawn) [Example 258, 7-ethoxy-2-(6-((1S)-2,2,2-trifluoro-1-(1,7-diazaspiro[4.4]nonan-7-yl)ethyl)-[1,2,4]triazolo[4,3-a]pyridin-3-yl)quinoline dihydrochloride]",2.05,1.9,531
"COc1cccc2ccc(-c3nnc4ccc([C@@H](N5CC[C@](C)(N)C5)C(F)(F)F)cn34)nc12 [Example 246, (S)-3-methyl-1-((R)-2,2,2-trifluoro-1-(3-(8-methoxyquinolin-2-yl)-[1,2,4]triazolo[4,3-a]pyridin-6-yl)ethyl)pyrrolidin-3-amine dihydrochloride]",1.77,15,> 1000
"COc1cccc2ccc(-c3nnc4ccc(C(N5CC[C@H](N)C5)C(F)(F)F)cn34)nc12 (stereo partly drawn) [Example 1, (3S)-1-(2,2,2-trifluoro-1-(3-(8-methoxyquinolin-2-yl)-[1,2,4]triazolo[4,3-a]pyridin-6-yl)ethyl)pyrrolidin-3-amine dihydrochloride]",0.43,1.7,161
"CC(C)Oc1cc(F)cc2ccc(-c3nnc4ccc([C@H](N5CC[C@H](N)C5)C(F)(F)F)cn34)nc12 [Example 135, (S)-1-((S)-2,2,2-trifluoro-1-(3-(6-fluoro-8-isopropoxyquinolin-2-yl)-[1,2,4]triazolo[4,3-a]pyridin-6-yl)ethyl)pyrrolidin-3-amine hydrochloride]",1.41,3,82

# These reach a lower IC50 (PIM-1). Values come first.
IC50 (PIM-1) [nM],IC50 (recombinant rat PIM-3) [nM],IC50 [1] [nM],SMILES
0.27,1.1,139,"CC(C)(O)c1cccc2ccc(-c3nnc4ccc([C@@H](N5CC[C@H](N)C5)C(F)(F)F)cn34)nc12 [Example 225, 2-(2-(6-((R)-1-((S)-3-aminopyrrolidin-1-yl)-2,2,2-trifluoroethyl)-[1,2,4]triazolo[4,3-a]pyridin-3-yl)quinolin-8-yl)propan-2-ol]"
0.21,0.5,29,"CC(C)(C)c1cccc2ccc(-c3nnc4ccc([C@@H](N5CC[C@H](N)C5)C(F)(F)F)cn34)nc12 [Example 45, (S)-1-((R)-1-(3-(8-tert-butylquinolin-2-yl)-[1,2,4]triazolo[4,3-a]pyridin-6-yl)-2,2,2-trifluoroethyl)pyrrolidin-3-amine dihydrochloride]"
0.2,0.3,44,"COC(C)(C)COc1cccc2ccc(-c3nnc4ccc([C@@H](N5CC[C@H](N)C5)C(F)(F)F)cn34)nc12 [Example 276, (S)-1-((R)-2,2,2-trifluoro-1-(3-(8-(2-methoxy-2-methylpropoxy)quinolin-2-yl)-[1,2,4]triazolo[4,3-a]pyridin-6-yl)ethyl)pyrrolidin-3-amine formate]"
0.2,0.3,> 100,"CC(C)(C)C(=O)Nc1ccc2ccc(-c3nnc4ccc([C@@H](N5CC[C@H](N)C5)C(F)(F)F)cn34)nc2c1 [Example 71, N-(2-(6-((R)-1-((S)-3-aminopyrrolidin-1-yl)-2,2,2-trifluoroethyl)-[1,2,4]triazolo[4,3-a]pyridin-3-yl)quinolin-7-yl)pivalamide]"
0.19,0.7,30,"CC(C)Oc1cc(F)cc2ccc(-c3nnc4ccc([C@@H](N5CC[C@H](NCCO)C5)C(F)(F)F)cn34)nc12 [Example 102, 2-((S)-1-((R)-2,2,2-trifluoro-1-(3-(6-fluoro-8-isopropoxyquinolin-2-yl)-[1,2,4]triazolo[4,3-a]pyridin-6-yl)ethyl)pyrrolidin-3-ylamino)ethanol dihydrochloride]"
0.17,0.6,166,"C[C@H](CO)Oc1cc(F)cc2ccc(-c3nnc4ccc([C@@H](N5CC[C@H](N)C5)C(F)(F)F)cn34)nc12 [Example 238, (R)-2-(2-(6-((R)-1-((S)-3-aminopyrrolidin-1-yl)-2,2,2-trifluoroethyl)-[1,2,4]triazolo[4,3-a]pyridin-3-yl)-6-fluoroquinolin-8-yloxy)propan-1-ol dihydrochloride]"
0.16,0.4,67,"C[C@H](CO)Oc1cccc2ccc(-c3nnc4ccc([C@@H](N5CC[C@H](N)C5)C(F)(F)F)cn34)nc12 [Example 186, (R)-2-(2-(6-((R)-1-((S)-3-aminopyrrolidin-1-yl)-2,2,2-trifluoroethyl)-[1,2,4]triazolo[4,3-a]pyridin-3-yl)quinolin-8-yloxy)propan-1-ol dihydrochloride]"
0.14,0.3,31,"CC(C)Oc1cc(F)cc2ccc(-c3nnc4ccc([C@@H](N5CC[C@H](N)C5)C(F)(F)F)cn34)nc12 [Example 86, (S)-1-((R)-2,2,2-trifluoro-1-(3-(6-fluoro-8-isopropoxyquinolin-2-yl)-[1,2,4]triazolo[4,3-a]pyridin-6-yl)ethyl)pyrrolidin-3-amine hydrochloride]"
0.1,1.1,11,"N[C@H]1CCN([C@@H](c2ccc3nnc(-c4ccc5cccc(C6CC6)c5n4)n3c2)C(F)(F)F)C1 [Example 51, (S)-1-((S)-1-(3-(8-cyclopropylquinolin-2-yl)-[1,2,4]triazolo[4,3-a]pyridin-6-yl)-2,2,2-trifluoroethyl)pyrrolidin-3-amine dihydrochloride]"
0.04,0.7,13,"COCC(C)(C)c1cccc2ccc(-c3nnc4ccc([C@@H](N5CC[C@H](N)C5)C(F)(F)F)cn34)nc12 [Example 105, (S)-1-((R)-2,2,2-trifluoro-1-(3-(8-(1-methoxy-2-methylpropan-2-yl)quinolin-2-yl)-[1,2,4]triazolo[4,3-a]pyridin-6-yl)ethyl)pyrrolidin-3-amine dihydrochloride]"
